10 compounds from paper PMC6300282, “Sulphamethazine derivatives as immunomodulating agents: New therapeutic strategies for inflammatory diseases” (PLoS ONE, 2018) can be followed below.

For data set [1], the system named is zymosan activated whole blood phagocytes. Briefly: Oxidative burst assay (luminol-enhanced chemiluminescence), whole blood. Type of data set: cell-based. The settings on record: human whole blood, serum opsonized zymosan, three doses 1, 10, 100 μg/mL, mean ± SD of three, NA = Not active, read-out: Oxidative Burst Inhibition (IC50) WB. The procedure: (§1) Luminol-enhanced chemiluminescence assay was performed, as described by Helfandet al., 1982 [17], with some modifications. Briefly 25 μL of diluted whole blood in HBSS^++ (Hanks Balanced Salt Solution, containing calcium chloride and magnesium chloride) [Sigma, St. Louis, USA] was incubated with 25 μL of three different concentrations of compounds (1, 10, and 100 μg/mL), each in triplicate. Control wells received HBSS^++ and cells, but no compounds. Test was performed in white half area 96-well plates [Costar, NY, USA], which was incubated at 37 °C for 15 minutes in the thermostat chamber of luminometer [Labsystems, Helsinki, Finland]. After incubation, 25 μL of serum opsonized zymosan (SOZ) [Fluka, Buchs, Switzerland] and 25 μL of intracellular reactive oxygen species detecting probe, luminol [Research Organics, Cleveland, OH, USA] were added into each well, except blank wells (containing only HBSS^++). The level of the ROS was recorded in luminometer in term of relative light units (RLU).

Data set [2] has as its system isolated polymorphonuclear neutrophils (PMNs). Briefly: Oxidative burst assay (luminol-enhanced chemiluminescence), isolated PMNs. The class given is cell-based. The settings on record: Polymorphonuclear neutrophil, isolated human PMNs, zymosan, three doses 1, 10, 100 μg/mL, mean ± SD of three, read-out: Oxidative Burst Inhibition (IC50) PMNs.
Description: Heparinized blood was obtained by vein puncture aseptically from healthy volunteers. The PMNs were isolated by ficoll-Hypaque density gradient method. The cells were isolated after centrifugation from the tube base. Cells were washed twice and suspended in Hank’s Balance salt solution (HBSS^--) (Ca^2+ and Mg^2+ free), RBCs were lysed using hypotonic solution. Cells were adjusted to their required concentration (1x10^6 cells/mL) using HBSS^++containing Ca^2+ and Mg^2+.
as §1

Data set [3] deals with nitric oxide (NO) production from LPS activated J774.2 mouse macrophages. Kind of data set: Nitric oxide production (Griess), LPS activated macrophages. The class given is cell-based. The settings on record: J774.2 cells, 30 μg/mL LPS, three doses 1, 10, 100 μg/mL, mean ± SD of three, read-out: NO Inhibition (IC50). How it is done: The mouse macrophage cell line J774.2 (European Collection of Cell Cultures, UK) was cultured in 75 cc flasks IWAKI (Asahi Techno Glass, Japan) in DMEM Sigma-Aldrich (Steinheim, Germany) supplemented with 10% fetal bovine serum GIBCO (New York, USA)1% streptomycin/penicillin. Flasks were kept at 37 °C in atmosphere of humidified air containing 5% CO2, cells were seeded in 96-well plate (10^6 cells/mL) and were induced by 30 μg/mL e. coli lipopolysaccharide (LPS) (DIFCO Laboratories michigon, USA). The test compounds were added at concentrations of (1, 10 and 100 μg/mL) and plate was incubated at 37 °C in 5% CO2. Nitrite accumulation in culture supernatant was measured using the Griess reagents as described previously.
In general terms: The Griess reaction detects nitrite, a stable product of nitric oxide.

The nature of the next data set: MTT cytotoxicity assay. Type of data set: cell-based, mouse. The settings on record: mouse; MTT, 48 hours; read-out: Cytotoxicity NIH-3T3 cell line (IC50). The procedure:
The cytotoxicity was recorded as concentration causing 50% growth inhibition (IC50).

The test system of data set [4] is Bacillus subtilis (ATCC 6633). Briefly: Microplate Alamar Blue Assay, Bacillus subtilis. The class given is cell-based. The settings on record: ATCC6633, 200 μg/mL, NI = No inhibition, read-out: Percentage (%) Inhibition, Bacillus subtilis. The procedure:
(§2) The anti-bacterial activity of synthesized compound were evaluated by the Microplate Alamar Blue Assay. Staphylococcus aureus (ATCC 25923), Pseudomonas aeruginosa(POA 286), Salmonella typhi (ATCC 14028), Bacillus subtilis ATCC 6633) and Escherichia coli (ATCC 12022) were used in this study as a standard bacterial strains and they were obtained from microbial bank of PCMD, International Center for Chemical and Biological Sciences, University of Karachi, Karachi-75270, Pakistan. The bacterial colonies grown in Trypton Soya Agar (TSA) (Oxoid Limited, UK) were inoculated in Mueller Hinton Broth (MHB) (Oxoid Limited, UK) and incubated overnight at 37 °C. Fully grown bacterial cultures were then diluted to adjust with 0.5 McFarland Turbidity Index (equivalent to 1.5 × 10^8 CFU/mL). Stock solutions (4 mg/mL) of different test compounds were prepared in DMSO and 10μL each of these stock solutions were placed in well of flat bottom, polystyrene, sterile 96-wells plate except the positive control wells (media + bacteria). This gives 200μg/mL concentrations of compounds in final 200 μL solution. Each compound was run in triplicates. Finally, bacterial suspension (5 x 10^6 CFU/mL) was added in each well. Plates were sealed by parafilm and incubated at 37 °C for 18–22 hrs. Next day, 20 μL of 0.02% resazurin sodium salt dye (Chem-Impex-Int’LInc) was added in each well and incubated in shaking incubator at 80 rpm, 37 °C for 2–3 hrs. The color change from blue to reddish pink indicates the growth of bacteria. For quantitative analysis, plates were read at 570 nm and 600 nm in Multiskan GOmicroplate spectrophotometer, (Thermo Scientific, USA). The % inhibition of bacterial growth was calculated using below mentioned formula.
(§3) For the calculation of the % difference in reduction between treated and control cells in cytotoxicity/proliferation assays: =(εOX)λ2Aλ1-(εOX)λ1Aλ2oftestagent/(εOX)λ2A°λ1-(εOX)λ1A°λ2ofpositivegrowthcontrol×100
(Alamar Blue is a resazurin reagent that responds to reducing activity.)

The test system of data set [5] is Staphylococcus aureus (ATCC 25923). Briefly: Microplate Alamar Blue Assay, Staphylococcus aureus. The class given is cell-based. The settings on record: Staphylococcus aureus, ATCC25923; 200 μg/mL; NI = No inhibition; read-out: Percentage (%) Inhibition, Staphylococcus aureus. How it is done: as §2, §3
Data set [6] deals with Escherichia coli (ATCC 12022). Briefly: Microplate Alamar Blue Assay, Escherichia coli. Type of data set: cell-based. The settings on record: ATCC12022, 200 μg/mL, NI = No inhibition, read-out: Percentage (%) Inhibition, Escherichia coli. How it is done:
as §2, §3

The test system of data set [7] is Pseudomonas aeruginosa (POA 286). Kind of data set: Microplate Alamar Blue Assay, Pseudomonas aeruginosa. The class given is cell-based. The settings on record: Pseudomonas aeruginosa; 200 μg/mL; NI = No inhibition; read-out: Percentage (%) Inhibition, Pseudomonas aerugenosa. The procedure: as §2, §3
In data set [8] the test system is Salmonella typhi (ATCC 14028). Briefly: Microplate Alamar Blue Assay, Salmonella typhi. The class given is cell-based. The settings on record: Salmonella enterica; 200 μg/mL; NI = No inhibition; read-out: Percentage (%) Inhibition, Slamonella typhi. The procedure: as §2, §3

In general, IC50 refers to the concentration at which inhibition is half-maximal. What is called inhibition is how much of the control response was suppressed.

Consider `CC(C)Cc1ccc(C(C)C(=O)O)cc1` (stereo not drawn) [40 (Ibuprofen), Ibuprofen, reference compound], for which the 50% inhibitory concentration (IC50) came out at 11.2 ± 1.9 µg/mL in [1] and 2.5 ± 0.6 µg/mL in data set [2].
As for `[H]/N=C(/NC)NCCC[C@H](N)C(=O)O` [41 (L-NMMA), NG monomethyl L-arginine acetate, reference compound], in data set [3], the IC50 stood at 24.2 ± 0.6 µg/mL.
Turning to `Cc1cc(C)nc(NS(=O)(=O)c2ccc(NC(=O)c3cccc(I)c3)cc2)n1` [Compound 31, N-(4-(N-(4,6-dimethylpyrimidin-2-yl)sulfamoyl)phenyl)-3-iodobenzamide], in the data set “MTT cytotoxicity assay”, the IC50 is above 30 µM. The inhibition at 200 µg/mL in data set [4] was below 0%; in data set [5], 13%; in data set [6] it was below 0%; in data set [7], below 0%; in [8], below 0%.
As to `COc1cccc(C(=O)Nc2ccc(S(=O)(=O)Nc3nc(C)cc(C)n3)cc2)c1` [Compound 32, N-(4-(N-(4,6-dimethylpyrimidin-2-yl)sulfamoyl)phenyl)-3-methoxybenzamide], in “MTT cytotoxicity assay”, the concentration for half-maximal inhibition (IC50) is above 30 µM. Besides, the inhibition at 200 µg/mL is below 0% in [4]; 32.9% in [5]; below 0% in data set [6]; below 0% in [7]; 19% in [8].
`COc1cc(OC)cc(C(=O)Nc2ccc(S(=O)(=O)Nc3nc(C)cc(C)n3)cc2)c1` [Compound 33, N-(4-(N-(4,6-dimethylpyrimidin-2-yl)sulfamoyl)phenyl)-3,5-dimethoxybenzamide]: the concentration for half-maximal inhibition (IC50) in “MTT cytotoxicity assay” is above 30 µM. For the same compound, the inhibition at 200 µg/mL in [4] is below 0%; in [5] it was 31.3%; in data set [6] it was below 0%; in data set [7], below 0%; in data set [8], below 0%.
Regarding `Cc1ccc(C(=O)Nc2ccc(S(=O)(=O)Nc3nc(C)cc(C)n3)cc2)cc1` [Compound 34, N-(4-(N-(4,6-dimethylpyrimidin-2-yl)sulfamoyl)phenyl)-4-methylbenzamide], in “MTT cytotoxicity assay”, the IC50 was above 30 µM. In addition, the inhibition at 200 µg/mL in data set [4] was below 0%; in data set [5], below 0%; in data set [6], below 0%; in [7], 15.4%; in data set [8] it was 0.65%.
As to `Cc1cc(C)nc(NS(=O)(=O)c2ccc(NC(=O)c3ccccc3C)cc2)n1` [Compound 35, N-(4-(N-(4,6-dimethylpyrimidin-2-yl)sulfamoyl)phenyl)-2-methylbenzamide], the 50% inhibitory concentration (IC50) in the data set “MTT cytotoxicity assay” is above 30 µM. Also, the inhibition at 200 µg/mL in [4] was below 0%; in data set [5] it was below 0%; in [6] it was below 0%; in data set [7], 16.5%; in data set [8], 0.2%.
Turning to `Cc1cccc(C(=O)Nc2ccc(S(=O)(=O)Nc3nc(C)cc(C)n3)cc2)c1` [Compound 36, N-(4-(N-(4,6-dimethylpyrimidin-2-yl)sulfamoyl)phenyl)-3-methylbenzamide], in “MTT cytotoxicity assay”, the half-inhibitory concentration (IC50) is above 30 µM. The inhibition at 200 µg/mL is below 0% in data set [4]; below 0% in data set [5]; below 0% in data set [6]; 20.5% in [7]; below 0% in data set [8].
For the compound `Cc1cc(C)nc(NS(=O)(=O)c2ccc(NC(=O)CCc3ccccc3)cc2)n1` [Compound 37, N-(4-(N-(4,6-dimethylpyrimidin-2-yl)sulfamoyl)phenyl)-3-phenylpropanamide], in the data set “MTT cytotoxicity assay”, the IC50 was above 30 µM. Further, the inhibition at 200 µg/mL was below 0% in [4]; 10.2% in data set [5]; below 0% in data set [6]; below 0% in data set [7]; below 0% in data set [8].
In the case of `Cc1cc(C)nc(NS(=O)(=O)c2ccc(NC(=O)c3ccccc3)cc2)n1` [Compound 39, N-(4-(N-(4,6-dimethylpyrimidin-2-yl)sulfamoyl)phenyl)benzamide], the half-maximal inhibitory concentration (IC50) in “MTT cytotoxicity assay” was above 30 µM. In addition, the inhibition at 200 µg/mL in data set [4] is below 0%; in data set [5] it was 41.1%; in [6] it was 1.84%; in data set [7], below 0%; in data set [8] it was 12.5%.
